Results from patent US20260283924A1, “TOPICAL COMPOSITIONS FOR PROMOTING HAIR GROWTH” (ESTETRA SRL, priority 2023, published 2026).

Key:
[1] = Antioxidant activity measured with Skin-Biosense sensor; conditions: H2O2 5 mM
Experimental: The antioxidant activity of E4 was evaluated using the Skin-Biosense® sensor, a technology developed by Qima Life Sciences (Gencay, France). This electrochemical sensor measures the electron transfer between two conductive elements: the sensor and a solution of H2O2. The H2O2 solution is used as a marker for the determination of the detoxification power: as H2O2 is one of the most oxidizing non-radical species, any molecule capable of decreasing its concentration can be considered as an antioxidant. When a sample is in the presence of H2O2, all its antioxidative species spontaneously react with it and decrease its quantity. As the area of the peak measured by the sensor is directly proportional to H2O2 concentration, the detoxifying activity of a compound is evaluated by its modulation of the peak area.
H2O2 5 mM in electrolytic ethanol solution was mixed with E4 in electrolytic ethanol solutions at several concentrations (0.16-0.5-1.6-5-16-50 mM), and the H2O2 oxidation peaks area were measured. The power of the antioxidant activity was calculated by comparing the peak area of the H202 solution with the peak area of the H2O2 solution mixed with an E4 solution.

[2] = tested on: Female wild-type (C57BL/6J) mice; test: In vivo LPS-induced delayed wound healing model: uterine weight and morphology (systemic effect), Example 4; conditions: topical over wounds, 60 μl total, day -1 to day 4; uteri at day 5
[3] = tested on: terminal and intermediate hair follicles from affected and non-affected areas of FPHL donors; test: Female pattern hair loss (FPHL) donor hair follicle organ culture (ex vivo model), Example 9; format: cell-based, human; conditions: 3 μM; for microscopic hair cycle staging: anagen: HFs from non-affected (terminal) and affected (terminal and intermediate) scalp, preliminary, 2 donors; for hair matrix keratinocytes proliferation: terminal HFs from non-affected and affected scalp; for versican expression: terminal and intermediate HFs from non-affected scalp
Text: Example 7 is repeated for female donor subjects suffering from pattern hair loss (FPHL), with a few modifications. In brief, terminal and intermediate hair follicles (HF) from affected (vertex) and non-affected (occipital) areas were obtained from female donors diagnosed to have FPHL (FIG. 34). After microdissection from skin as described in the art (Edelkamp et al., Methods Mol Biol, 2020, 2154:105-119; and Langan et al., Exp Dermatol, 2015 December; 24(12):903-1), HFs are placed in adequate culture medium and allowed a 24 h rest period to allow them to recover from the trauma of microdissection. Test substance (either vehicle (0.03% EtOH) or E4 at concentrations of 3 μM) was added to the medium at the end of the 24 h. Total culturing time was 3-5 days depending on the stage of the HFs in the vehicle group. The experimental design is depicted in FIG. 35. The same parameters as those described in Example 7 were investigated.
[…] Three additional donors still have to be collected.

[4] = intermediate HFs from affected scalp
[5] = intermediate HFs from non-affected area
[6] = intermediate HFs from non-affected scalp
[7] = intermediate HFs from non-affected scalp, listed as estetrol
[8] = terminal HFs from non-affected scalp
[9] = terminal HFs from non-affected scalp, listed as estetrol

With `C[C@]12CC[C@@H]3c4ccc(O)cc4CC[C@H]3[C@@H]1[C@@H](O)[C@@H](O)[C@@H]2O` [Formulation E4, 1,3,5 (10)-estratrien-3,15alpha,16alpha,17beta-tetrol] the “antioxidant activity (in words)” value ([1]; E4 0.16-50 mM) was “potent antioxidant activity”, the antioxidant activity ([1]; highest E4 concentration, 50000 µM) was 100% and the “antioxidant activity, mean power” value ([1]; molar ratio E4/H2O2 of 1) was 77.5%. The “uterine weight and morphology” value [2] was “affects uterine weight in a dose-dependent manner”, the “hair matrix keratinocytes apoptosis” value [3] was “without affecting hair matrix keratinocytes apoptosis” and the “dermal papilla inductivity (versican expression and alkaline phosphatase activity)” value ([3]; HFs from affected area) was “not strikingly altered”. For the same compound, the “microscopic hair cycle staging: anagen” value [3] was “prolonged anagen”, the “microscopic hair cycle staging: anagen” value ([3]; listed as estetrol) was “prolongs anagen” and the “density of dermal papilla cells” value [3, 4] was “tendentially increased the density”. For the same compound, the “total number of dermal papilla cells” value [3, 4] was “tendentially increased”, the “density of dermal papilla cells” value [3, 5] was “tendentially decreases the density” and the “total number of cells in the dermal cup” value [3, 5] was “increases”. For the same compound, the “K15 expression, bulge basal layer” value [3, 6] was “tendentially increased K15 expression”, the “area size of the dermal papilla” value [3, 6] was “tendentially increased” and the “density of dermal papilla stalk cells” value [3, 6] was “tendentially decreased the density of dermal papilla stalk cells”. For the same compound, the “total number of cells of the dermal papilla” value [3, 6] was “tendentially increased the total number of cells”, the “area size of the dermal papilla” value [3, 7] was “increases” and the “density of dermal papilla stalk cells” value [3, 7] was “tendentially decreased”. For the same compound, the “total number of cells of the dermal papilla” value [3, 7] was “increases the total DP cell number”, the “proliferation of K15+ cells, bulge basal layer” value ([3]; terminal HFs from affected scalp) was “increased proliferation of K15+ cells” and the “hair matrix keratinocytes proliferation” value [3] was “tendentially increased hair matrix keratinocytes proliferation”. For the same compound, the “hair matrix keratinocytes proliferation” value ([3]; listed as estetrol) was “tendentially increases hair matrix keratinocytes proliferation”, the “proliferation of K15+ cells, suprabulbar outer root sheath” value ([3]; terminal HFs from non-affected and intermediate HFs from affected scalp) was “increased proliferation of K15+ cells” and the “density of dermal papilla stalk cells” value ([3]; terminal HFs from non-affected area) was “without influencing their density”. The “K15 expression, suprabulbar outer root sheath” value [3, 8] was “tendentially increased K15 expression”, the “area size of the dermal papilla stalk” value [3, 8] was “significantly decreased” and the “number of K15 positive cells, suprabulbar outer root sheath” value [3, 8] was “tendentially increased”. The “total number of cells in the dermal cup” value [3, 8] was “significantly reduced the total number of cells in the dermal cup”, the “total number of cells of the dermal papilla stalk” value [3, 8] was “significantly decreased the total number of cells” and the “area size of the dermal papilla stalk” value [3, 9] was “significantly decreases”. The “total number of cells in the dermal cup” value [3, 9] was “significantly reduces”, the “total number of cells of the dermal papilla stalk” value [3, 9] was “significantly decreases the total number” and the “alkaline phosphatase activity (dermal papilla inductivity)” value ([3]; terminal and intermediate HFs from non-affected area) was “tendential increase”. For the same compound, the versican expression [3] was “tendentially increased versican expression” and the versican expression ([3]; listed as estetrol) was “tendentially increases versican expression”.
